“And” between values parts separate entries of the source, which are not always exact repeats. Identical values can stand only once.
What was measured:
Format in all cases: in vivo
Polygonum convolvulus = assay: Post-emergence action against weeds (greenhouse, visual scoring): Polygonum convolvulus; conditions: scored 11 days after application
Procedure: (§1) Seeds or rhizome pieces of monocotyledonous and dicotyledonous weeds were placed in sandy loam soil in plastic pots, covered with soil and cultivated in a greenhouse under good growth conditions. Three weeks after sowing, the test plants were treated at the 2- to 4-leaf stage. The compounds according to the invention, formulated as wettable powders or as emulsion concentrates, were sprayed onto the green parts of the plants in various dosages at a water application rate of 100 to 800 l/ha (converted).
(§2) Scoring was carried out 11 days after the application of the sprays. In the case of the combination with B7-16 (table 1-15), the weed was Polygonum spp. and scoring was carried out 20 days after application.
(§3) The control of the weed was scored according to the scheme below.

Veronica persica = assay: Post-emergence action against weeds (greenhouse, visual scoring): Veronica persica; conditions: scored 10 days after application
Procedure: as §1, with “(converted). After the test plants had been left to stand in the greenhouse for 10 to 28 days under optimum growth conditions, the effect of the preparations was scored visually in comparison to untreated controls.” for “(converted).”
In an exemplary manner, tables 2-1 to 2-4 below show the improved control of the weed Veronica persica by application of the herbicide combinations according to the invention using the combination of the compound A-2 (sodium salt of 2-iodo-N-[(4-methoxy-6-methyl-1,3,5-triazin-2-yl)carbamoyl]benzenesulfonamide) and selected herbicides from group B, i.e. the herbicides amidosulfuron (=B7-1), ethoxysulfuron (=B7-9), flucarbazone-sodium (B8-1), and sulfosulfuran (B7-28), as an example.
Scoring was carried out 10 days after the application of the sprays according to the scheme below: […]

Polygonum spp. = assay: Post-emergence action against weeds (greenhouse, visual scoring): Polygonum spp.; conditions: scored 20 days after application
Procedure: as §1, §2, §3

[1] = 2.5 g of ai/ha, 0%=no control, 100%=complete control

## CCOC(=O)Nc1cccc(OC(=O)Nc2ccccc2)c1 [Compound B5-5, desmedipham]
Polygonum convolvulus; 50 g of ai/ha
  Polygonum convolvulus Control in %: 28%

## COc1cc(OC)nc(NC(=O)NS(=O)(=O)N(C)S(C)(=O)=O)n1 [Compound B7-1, amidosulfuron]
Veronica persica; 5 g of ai/ha
  Veronica persica Control in %: 0%

## CCOc1ccccc1OS(=O)(=O)NC(=O)Nc1nc(OC)cc(OC)n1 [Compound B7-9, ethoxysulfuron]
Veronica persica; 5 g of ai/ha
  Veronica persica Control in %: 8%

## COc1cc(OC)nc(NC(=O)NS(=O)(=O)c2cc(NC=O)ccc2C(=O)N(C)C)n1 [Compound B7-13, foramsulfuron]
Polygonum convolvulus; 10 g of ai/ha
  Polygonum convolvulus Control in %: 15%

## COC(=O)c1ccc(I)cc1S(=O)(=O)[N-]C(=O)Nc1nc(C)nc(OC)n1.[Na+] [Compound B7-16, iodosulfuron-methyl-sodium]
Polygonum spp.; 2 g of ai/ha
  Polygonum spp. Control in %: 73%

## COC(=O)c1ccc(CNS(C)(=O)=O)cc1S(=O)(=O)NC(=O)Nc1nc(OC)cc(OC)n1 [Compound B7-17, mesosulfuron-methyl]
Polygonum convolvulus; 5 g of ai/ha
  Polygonum convolvulus Control in %: 20%

## COC(=O)c1ccccc1S(=O)(=O)NC(=O)Nc1nc(C)nc(OC)n1 [Compound B7-18, metsulfuron-methyl]
Polygonum convolvulus; [1]
  Polygonum convolvulus Control in %: 70%

## CCS(=O)(=O)c1nc2ccccn2c1S(=O)(=O)NC(=O)Nc1nc(OC)cc(OC)n1 [Compound B7-28, sulfosulfuron]
Veronica persica; 7.5 g of ai/ha
  Veronica persica Control in %: 30%
Polygonum convolvulus; 7.5 g of ai/ha
  Polygonum convolvulus Control in %: 78%

## COC(=O)c1sccc1S(=O)(=O)NC(=O)Nc1nc(C)nc(OC)n1 [Compound B7-29, thifensulfuron-methyl]
Polygonum convolvulus; 7.5 g of ai/ha
  Polygonum convolvulus Control in %: 87%

## COC(=O)c1ccccc1S(=O)(=O)NC(=O)N(C)c1nc(C)nc(OC)n1 [Compound B7-31, tribenuron-methyl]
Polygonum convolvulus; 10 g of ai/ha
  Polygonum convolvulus Control in %: 80%

## COc1nc(NC(=O)NS(=O)(=O)c2ccccc2C(F)(F)F)nc(C(F)(F)F)n1 [Compound B7-34, tritosulfuron]
Polygonum convolvulus; 10 g of ai/ha
  Polygonum convolvulus Control in %: 58%

## CCCc1ccc2nc(Cl)c(S(=O)(=O)NC(=O)Nc3nc(OC)cc(OC)n3)n2n1 [Compound B7-38]
Polygonum convolvulus; 30 g of ai/ha
  Polygonum convolvulus Control in %: 0%

## COc1nn(C(=O)[N-]S(=O)(=O)c2ccccc2OC(F)(F)F)c(=O)n1C.[Na+] [Compound B8-1, flucarbazone-sodium]
Veronica persica; 10 g of ai/ha
  Veronica persica Control in %: 15%
Polygonum convolvulus; 10 g of ai/ha
  Polygonum convolvulus Control in %: 55%

## CCCOc1nn(C(=O)[N-]S(=O)(=O)c2ccccc2C(=O)OC)c(=O)n1C.[Na+] [Compound B8-2, propoxycarbazone-sodium]
Polygonum convolvulus; 10 g of ai/ha
  Polygonum convolvulus Control in %: 38%

## COC(=O)c1csc(C)c1S(=O)(=O)NC(=O)n1nc(OC)n(C)c1=O [Compound B8-3, thiencarbazone-methyl]
Polygonum convolvulus; 1 g of ai/ha
  Polygonum convolvulus Control in %: 50%

## COc1ncc(F)c2nc(S(=O)(=O)Nc3c(F)cccc3F)nn12 [Compound B9-3, florasulam]
Polygonum convolvulus; [1]
  Polygonum convolvulus Control in %: 73%

## COc1cc(OC)n2nc(NS(=O)(=O)c3c(C(F)(F)F)ccnc3OC)nc2n1 [Compound B9-7, pyroxsulam]
Polygonum convolvulus; [1]
  Polygonum convolvulus Control in %: 75%

## sodium salt of 2-iodo-N-[(4-methoxy-6-methyl-1,3,5-triazin-2-yl)carbamoyl]benzenesulfonamide [Compound A-2]
Polygonum spp.; 2.5 g of ai/ha
  Polygonum spp. Control in %: 0%
Veronica persica; 2.5 g of ai/ha, 0%=No control, 100%=Complete control
  Veronica persica Control in %: 10% and 0%
Polygonum convolvulus; [1]
  Polygonum convolvulus Control in %: 10% and 0%
